Data as given in the SangsterLogP compilation.

Structure (SMILES)	logP
CC(Cl)(Cl)C(=O)O	1.34
CCC(C)n1c(=O)[nH]c(C)c(Br)c1=O (centres undefined)	1.33
Nc1cc(Cl)cc(C(=O)O)c1Cl	1.46
CC(C)OC(=O)Nc1cccc(Cl)c1	3.42
COC(=O)C=C(C)OP(=O)(OC)OC	0.55
Cc1[nH]c(=O)n(C(C)(C)C)c(=O)c1Cl	1.44
CCC(C)Nc1c([N+](=O)[O-])cc(C(C)(C)C)cc1[N+](=O)[O-] (centres undefined)	4.54
ClC1=C(Cl)[C@]2(Cl)C3C(Cl)C(Cl)CC3[C@@]1(Cl)C2(Cl)Cl (some centres undefined)	5.89
O=C(O)c1c(Cl)ccc(Cl)c1Cl	4.34
CCCN(CCC)c1c([N+](=O)[O-])cc(S(C)(=O)=O)cc1[N+](=O)[O-]	4.78
Cc1cc(Cl)ccc1OCC(=O)O	2.69
CN(C)C(=O)C(c1ccccc1)c1ccccc1	2.17
CC(C)Nc1nc(Cl)nc(NC(C)C)n1	3.09
CCCN(CC1CC1)c1c([N+](=O)[O-])cc(C(F)(F)F)cc1[N+](=O)[O-]	5.16
